Results: ChEMBL document CHEMBL1126832, “2-Amido-8-methoxytetralins: a series of nonindolic melatonin-like agents” (J Med Chem, 1993)

What was measured:
[1] = biological target: Melatonin receptor (Oryctolagus cuniculus); assay: Inhibition of […] calcium dependent dopamine release from the rabbit retina.
Melatonin receptor = Melatonin receptor (Gallus gallus, UniProt P49288+P51050+P49285); assay: Binding affinity to compete for 2-[125I]iodomelatonin binding to chicken retinal membranes; design: species or system Retina, Membrane
[2] = biological target: Melatonin receptor (Gallus gallus) (UniProt P49288+P51050+P49285); assay: Relative binding affinity to chicken retinal membranes compared to 2-[125I]iodomelatonin.; settings: Retina; Membrane
Oryctolagus cuniculus = species on record: Oryctolagus cuniculus; assay: Tested for in vitro inhibition of calcium-dependent release of [3H]dopamine from rabbit retina; NE- No effect; format: functional

IC50 [1] [nM] | Ki (Melatonin receptor) [nM] | Relative affinity [2] | IC50 (Oryctolagus cuniculus) | SMILES
22 | 23100 | 40500 | – | COc1cccc2c1CC(NC(=O)c1ccccc1)CC2 (stereo unspecified)
1.6 | 121 | 212 | – | COc1ccc2c(c1)CC(NC(C)=O)CC2 (stereo unspecified)
1.2 | 3.6 | 6.3 | – | CCCC(=O)NC1CCc2cccc(OC)c2C1 (stereo unspecified)
2.5 | 141 | 247 | – | COc1cccc2c1CC(NC(=O)C1CC1)CC2 (stereo unspecified)
6.5 | 1950 | 3420 | – | COc1cccc2c1CCC(NC(C)=O)C2 (stereo unspecified)
0.063 | 3.75 | 6.6 | – | COc1cccc2c1CC(NC(=O)CCl)CC2 (stereo unspecified)
– | – | – | Not Active | COc1cccc2c1CC(NC(=O)Cc1ccccc1)CC2 (stereo unspecified)
7.9 | 312 | 547 | – | COc1cccc2c1CC(NC(=O)C(C)C)CC2 (stereo unspecified)

More lines, now with the values behind:

SMILES | IC50 [1] [nM] | Ki (Melatonin receptor) [nM] | Relative affinity [2] | IC50 (Oryctolagus cuniculus)
CC(=O)NC1CCc2ccccc2C1 (stereo unspecified) | 52 | 665 | 1170 | –
COc1cc2c(CCNC(C)=O)c(C)[nH]c2c(Cl)c1Cl | 0.01 | 0.23 | 0.4 | –
COc1cccc(CCNC(C)=O)c1 | – | 581 | 1020 | –
CCC(=O)NCCc1ccccc1OC | – | 789 | 1380 | –
CCCC(=O)NCCc1c[nH]c2ccc(OC)cc12 | – | 0.73 | 1.28 | –
O=C(CCl)NC1CCc2ccccc2C1 (stereo unspecified) | 1.3 | 95.1 | 167 | –
COc1ccccc1CCNC(C)=O | 3 | 420 | 737 | –
CCCC(=O)NCCc1ccccc1OC | – | 748 | 1310 | –
CCC(=O)NCCc1c[nH]c2ccc(OC)cc12 | – | 0.27 | 0.47 | –
CCCC(=O)NC1CCc2ccccc2C1 (stereo unspecified) | 1 | 44.4 | 78 | –
COc1ccc2c(c1)CCC(N)C2.Cl (stereo unspecified) | – | > 100000 | – | –
CCC(=O)NC1CCc2ccccc2C1 (stereo unspecified) | 8.1 | 145 | 254 | –
